Source: patent US8026240B2, “Octahydro-pyrrolo[3,4-b]pyrrole N-oxides” (Abbott Laboratories, priority 2007, dated 2011)

Molecular target: T1, rat histamine-3 receptor (Rattus norvegicus, UniProt Q9QYN8)
T1 construct: expressed in transfected cells; host or cells: C6 or HEK293 cells
Assay: histamine-3 receptor competition binding with [H3]-N-α-methylhistamine
Protocol: To determine the effectiveness of representative compounds of this invention as histamine-3 receptor ligands, the following tests were conducted according to previously described methods (see Arrang et al, “Histamine H3 Receptor Binding Sites in Rat Brain Membranes:Modulations by Guanine Nucleotides and Divalent Cations”, European Journal of Pharmacology, Vol. 188, pp. 219-227 (1990); Tedford et al., “Pharmacological Characterization of GT-2016, A Non-Thiourea-Containing Histamine H3 Receptor Antagonist: In Vitro and In Vivo Studies”, The Journal of Pharmacology and Experimental Therapeutics, Vol. 275, pp. 598-604 (1995); Leurs et al., “Histamine Homologues Discriminating Between Two Functional H3-Receptor Assays. Evidence for H3 Receptor”, Journal of Pharmacology and Experimental Therapeutics, Vol. 276, No. 3, pp. 1009-1015 (1996); and Cheng et al., “Relationship Between the Inhibition Constant (K1) and the Concentration of Inhibitor which Causes 50% Inhibition (150) of an Enzymatic Reaction”, Biochemical Pharmacology, Vol. 22., pp. 3099-3108 (1973)).
The rat histamine-3 receptor was cloned and expressed in cells, and competition binding assays carried out, according to methods previously described (see Esbenshade et al., “Pharmacological Properties of ABT-239 [4-(2-{2-[(2R)-2-Methylpyrrolidinyl ]ethyl}-benzofuran-5-yl)benzonitrile]: I. Potent and Selective Histamine H3 Receptor Antagonist with Drug-Like Properties”, Journal of Pharmacology and Experimental Therapeutics, Vol. 313, pp. 165-175, (2005); Esbenshade et al., “Pharmacological and Behavioral Properties of A-349821, a Selective and Potent Human Histamine H3 Receptor Antagonist”, Biochemical Pharmacology, Vol 68, pp. 933-945 (2004); Krueger et al., “G Protein-Dependent Pharmacology of Histamine H3 Receptor Ligands: Evidence for Heterogeneous Active State Receptor Conformations”, Journal of Pharmacology and Experimental Therapeutics, Vol. 314, pp. 271-281 (2005)). Membranes were prepared from C6 or HEK293 cells, expressing the rat histamine-3 receptor, by homogenization on ice in TE buffer (50 mM Tris-HCl buffer, pH 7.4, containing 5 mM EDTA), 1 mM benzamidine, 2 μg/ml aprotinin, 1 μg/ml leupeptin, and 1 μg/ml pepstatin. The homogenate was centrifuged at 40,000 g for 20 minutes at 4° C. […]
Membrane preparations were incubated with [H3]-N-α-methylhistamine (0.5-1.0 nM) in the presence or absence of increasing concentrations of ligands of formula (I) and formula (II) for histamine-3 receptor competition binding. […] Bound radiolabel was determined by liquid scintillation counting. For all of the radioligand competition binding assays, IC50 values and Hill slopes were determined by Hill transformation of the data and pKi values were determined by the Cheng-Prusoff equation.

[1] = compounds of formula (I), mean of 4 separate determinations

T1 sequence (Q9QYN8 whole entry): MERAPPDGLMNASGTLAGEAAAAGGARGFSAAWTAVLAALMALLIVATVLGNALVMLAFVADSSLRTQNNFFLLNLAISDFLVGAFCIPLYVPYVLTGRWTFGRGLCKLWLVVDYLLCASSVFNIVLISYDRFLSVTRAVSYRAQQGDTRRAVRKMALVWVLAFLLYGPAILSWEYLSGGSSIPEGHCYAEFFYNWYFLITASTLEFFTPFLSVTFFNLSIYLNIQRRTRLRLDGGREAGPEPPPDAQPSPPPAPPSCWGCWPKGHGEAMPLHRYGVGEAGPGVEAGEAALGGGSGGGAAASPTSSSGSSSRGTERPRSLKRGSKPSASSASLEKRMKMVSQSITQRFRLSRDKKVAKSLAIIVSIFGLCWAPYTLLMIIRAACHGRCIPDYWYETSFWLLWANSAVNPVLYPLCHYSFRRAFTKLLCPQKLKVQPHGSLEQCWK

| Structure (SMILES) | Ki [1] [nM] | Ki (compounds of formula (II)) [nM] |
| --- | --- | --- |
| C[N@@+]1([O-])C[C@H]2CCN(c3ccc(-c4ccc(-n5ncccc5=O)cc4)cc3)[C@H]2C1 (single isomer, unassigned) | > 5000 | – |
| C[N@+]1([O-])C[C@H]2CCN(c3ccc(-c4ccc(-n5ncccc5=O)cc4)cc3)[C@H]2C1 (single isomer, unassigned) | 2240 | – |
| CN1C[C@H]2CCN(c3ccc(-c4ccc(-n5ncccc5=O)cc4)cc3)[C@H]2C1 [2-{4′-[(3aR,6aR)-5-methylhexahydropyrrolo[3,4-b]pyrrol-1(2H)-yl]-1,1′-biphenyl-4-yl}pyridazin-3(2H)-one] | – | 8.2 |
| CN1C[C@H]2CCN(c3ccc(-c4ccc(-n5ncccc5=O)nc4)cc3)[C@H]2C1 [2-(5-{4-[(3aR,6aR)-5-methylhexahydropyrrolo[3,4-b]pyrrol-1(2H)-yl]phenyl}pyridin-2-yl) pyridazin-3(2H)-one] | – | 3.5 |
